The target of assay [1] is T1, α4β1 integrin (Jurkat T-cell adhesion to IL-1 stimulated endothelial cell monolayers) (Homo sapiens, UniProt P05556+P13612).
T1 construct: a T-cell line, Jurkat, known to express the α4β1 integrin; host or cells: Jurkat T-cell line
Description: Jurkat-endothelial cell adhesion assay (Jurkat EC). The assay is classed as cell-based. The following applies: Jurkat cells on IL-1 stimulated human umbilical vein endothelial cells; read-out: JK/EC (Jurkat EC Assay IC50 value range). The procedure:
Jurkat-endothelial Cell Adhesion Assay:
The following assay established the activity of the present compounds in inhibiting β1-mediated cell adhesion in a representative in vitro system. This assay measures the adhesive interactions of a T-cell line, Jurkat, known to express the α4β1 integrin, to endothelial monolayers in the presence of test compounds. The test compounds were added in increasing concentrations to T-cells and then the T-cell compound mixture was added to IL-1 stimulated endothelial cell monolayers. The plates were incubated, washed and the percentage of attached cells was quantitated.
Human umbilical vein endothelial cells were purchased from Clonetics (San Diego, Calif.) at passage number 2. The cells were grown on 0.5% porcine skin gelatin pre-coated flasks (Sigma, St. Louis Mo.) in EGM-UV media (Clonetics, San Diego, Calif.) supplemented with 10% fetal bovine serum. Cells are refed every 2-3 days reaching confluence by day 4 to 6. […] The endothelial cells are not used following passage 6.
The T-cell line Jurkat was obtained from American Type Tissue Culture Collection (Rockville, Md.) and the cells were cultured in RPMI containing 10% fetal calf serum. The cells were washed twice in Hank's Balanced Salt Solution (HBSS) and resuspended in Dulbecco's Minimal Eagle's Media (DMEM) containing 2.5 mg/ml Human Serum Albumin (HSA). Jurkat cells (1×10^6 cells/ml) were stained with 10 ng/ml BCECF-AM (Molecular Probes, Eugene, Oreg.)) in HBSS without phenol red. The cells were loaded with BCECF for 60 minutes in the dark at 370C, washed 2 times, and resuspended in DMEM-HSA solution.
Confluent endothelial monolayers, grown in 96-well tissue culture plates, were stimulated for 4 hr. at 37° C. with 0.1 ng/ml (˜50 U/ml) recombinant IL-1 (Amgen, Thousand Oaks, Calif.). Following this incubation, the monolayers were washed twice with HBSS and 0.1 ml of DMEM−HSA solution was added. Jurkat cells (5×10^5 cells) were combined with the appropriate concentration of the test compound and 0.1 ml of the Jurkat cell-compound mixture was added to the endothelial cell monolayers. Generally, 100, 20, 5 and 1.25 μM compound concentrations were tested. […] The plates were placed on ice for 5 minutes to allow for Jurkat cell settling and the plates were incubated at 37° C. for 20 minutes. Following this incubation, the monolayers were washed twice with PBS containing 1 mM calcium chloride and 1 mM magnesium chloride and the plates were read using a Millipore Cytofluor 2300 (Marlboro, Mass.). Fluorescence in each well was measured as Arbitrary Fluorescence Units and percent adhesion in the absence of compound was adjusted to 100% and the % adhesion in the presence of compound was calculated. Monolayers were also fixed in 3% paraformaldehyde and evaluated microscopically to verify the adhesion. This procedure is a modification of a previously published method (Cardarelli et al., J. Biol. Chem. 269:18668-18673 (1994)).

Assay [2] addresses T2, α4β1 integrin (Jurkat cell adhesion to immobilized CS-1 derived peptide CLHPGEILDVPST) (Homo sapiens, UniProt P05556+P13612).
T2 construct: 100 μl of Jurkat cells (2.5×10^6 cells/ml) in DMEM plus BSA; host or cells: Jurkat T-cell line
Description: Jurkat-CS-1 assay. It is filed as cell-based. The following applies: Jurkat cells on CS-1 peptide coated plates; read-out: JK/CS-1 (Jurkat CS-1 Assay IC50 value range). The procedure:
The CS-1 derived peptide, CLHPGEILDVPST, and the scrambled control peptide, CLHGPIELVSDPT, were synthesized on a Beckman 990 synthesizer using t-Boc methodology. The peptides were immobilized onto microtiter plates using the heterobifunctional crosslinker 3-(2-pyridyldithio)propionic acid N-hydroxysuccinimide ester (SPDP) as reported by Pierschbacher et al., Proc. Natl. Acad. USA, 80:1224-1227 (1983). Microtiter plates were coated with 20 μg/ml HSA for 2 hr. at room temperature, washed once with PBS and derivatized with 10 μg/ml SPDP for 1 hr. After washing, 100 μl of a 100 μg/ml cysteine containing peptide solution which had been recently dissolved was added to the wells and allowed to crosslink to the plates overnight at 4° C. Unbound peptide was removed from plates by washing with PBS. To block non-reacted sites, the plates are coated with 100 μl of a 2.5 mg/ml BSA solution in PBS for 1 hr. at 37° C. 100 μl of Jurkat cells (2.5×10^6 cells/ml) in DMEM plus BSA (2.5 mg/ml) was mixed with an appropriate concentration of the compound to be tested and the mixture was added to peptide coated dishes and incubated for 1 hr. at 37° C. Generally 100, 20, 5 and 1.25 μM concentrations of the compound were tested.
Following this incubation the plates were washed once with PBS and the attached cells were fixed with 3% paraformaldehyde in PBS and stained with 0.5% toluidine blue in 3.7% formaldehyde. The cells were stained overnight at room temperature and the optical density at 590 nm of toluidine blue stained cells was determined using a vertical pathway spectrophotometer to quantitate attachment (VMAX Kinetic Microplate Reader, Molecular Devices, Menlo Park, Calif.). This procedure is a modification of a previously published method (Cardarelli et al, J. Biol. Chem., 269:18668-18673 (1994) and Cardarelli et al, Proc. Natl. Acad. Sci. USA, 83:2647-2651 (1986)).

T2 sequence (P13612 34-1032): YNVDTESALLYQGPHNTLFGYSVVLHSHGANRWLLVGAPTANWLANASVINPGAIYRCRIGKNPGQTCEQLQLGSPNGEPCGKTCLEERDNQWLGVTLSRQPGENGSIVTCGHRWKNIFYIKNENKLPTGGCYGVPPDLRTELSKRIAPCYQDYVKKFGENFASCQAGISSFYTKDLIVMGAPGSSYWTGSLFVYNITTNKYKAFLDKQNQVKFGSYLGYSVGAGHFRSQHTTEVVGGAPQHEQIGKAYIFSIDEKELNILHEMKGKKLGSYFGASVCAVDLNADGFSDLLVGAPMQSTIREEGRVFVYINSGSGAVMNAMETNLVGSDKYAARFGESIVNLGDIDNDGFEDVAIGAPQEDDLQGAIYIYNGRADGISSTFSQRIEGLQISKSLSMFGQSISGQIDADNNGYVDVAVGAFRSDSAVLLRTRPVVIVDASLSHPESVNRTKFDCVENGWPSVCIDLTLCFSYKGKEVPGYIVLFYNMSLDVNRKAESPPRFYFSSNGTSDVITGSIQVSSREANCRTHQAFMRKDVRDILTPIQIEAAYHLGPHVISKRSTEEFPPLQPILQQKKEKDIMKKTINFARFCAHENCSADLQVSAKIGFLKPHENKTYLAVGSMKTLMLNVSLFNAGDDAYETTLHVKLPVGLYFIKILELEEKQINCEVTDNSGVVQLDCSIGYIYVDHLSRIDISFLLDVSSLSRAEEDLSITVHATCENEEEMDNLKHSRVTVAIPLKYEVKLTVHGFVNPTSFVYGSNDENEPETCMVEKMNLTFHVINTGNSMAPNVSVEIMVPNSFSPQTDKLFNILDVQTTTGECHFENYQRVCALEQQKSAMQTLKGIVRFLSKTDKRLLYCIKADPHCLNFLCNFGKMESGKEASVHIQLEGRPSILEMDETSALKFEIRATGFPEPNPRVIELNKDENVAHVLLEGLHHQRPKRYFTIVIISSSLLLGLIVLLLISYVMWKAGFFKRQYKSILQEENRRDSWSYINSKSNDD
T2 sequence (P05556 21-798): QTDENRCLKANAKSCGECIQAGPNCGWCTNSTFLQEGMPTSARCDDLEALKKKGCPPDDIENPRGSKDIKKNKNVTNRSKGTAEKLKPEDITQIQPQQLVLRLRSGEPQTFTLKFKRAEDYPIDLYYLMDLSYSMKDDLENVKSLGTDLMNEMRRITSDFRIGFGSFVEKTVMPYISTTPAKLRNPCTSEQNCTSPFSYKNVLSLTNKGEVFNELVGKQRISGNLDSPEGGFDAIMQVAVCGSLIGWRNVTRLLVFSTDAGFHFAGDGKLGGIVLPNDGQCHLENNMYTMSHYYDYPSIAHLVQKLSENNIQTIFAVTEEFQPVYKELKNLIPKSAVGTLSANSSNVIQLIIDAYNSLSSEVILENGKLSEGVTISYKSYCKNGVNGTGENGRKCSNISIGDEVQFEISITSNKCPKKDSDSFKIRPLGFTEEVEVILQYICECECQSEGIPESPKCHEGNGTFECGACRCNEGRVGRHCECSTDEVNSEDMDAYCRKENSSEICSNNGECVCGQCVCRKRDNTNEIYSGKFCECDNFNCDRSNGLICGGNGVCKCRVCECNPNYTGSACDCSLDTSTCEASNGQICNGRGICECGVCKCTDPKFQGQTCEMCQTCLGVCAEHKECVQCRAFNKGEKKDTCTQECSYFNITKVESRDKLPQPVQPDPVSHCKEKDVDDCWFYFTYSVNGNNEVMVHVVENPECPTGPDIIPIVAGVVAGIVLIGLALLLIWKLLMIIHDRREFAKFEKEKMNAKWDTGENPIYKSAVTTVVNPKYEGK
T1 sequence (P13612 34-1032): as the sequence (P13612 34-1032) above
T1 sequence (P05556 21-798): as the sequence (P05556 21-798) above

For the molecule `COC(=O)[C@H](Cc1ccc(NC(=O)c2c(Cl)cccc2Cl)cc1)NC(=O)[C@H]1CSCN1C(=O)OC12CC3CC(CC(C3)C1)C2` (relative stereo) [Example 22, [S-(R*,R*)]-4-[[[1-[[4-[(2,6-Dichlorobenzoyl)amino]phenyl]methyl]-2-methoxy-2-oxoethyl]amino]carbonyl]-3-thiazolidinecarboxylic Acid 3-(Tricyclo[3.3.1.1^3,7]dec-1-yl)ester], the IC50 in assay [1] was no less than 1000 nM; in assay [2] it was no less than 750 nM.

For the molecule `O=C(Nc1ccc(C[C@H](NC(=O)[C@H]2CSCN2C(=O)OC23CC4CC(CC(C4)C2)C3)C(=O)O)cc1)c1c(Cl)cccc1Cl` (relative stereo) [Example 23, [S-(R*,R*)]-4-[[[1-Carboxy-2-[4-[(2,6-dichlorobenzoyl)amino]phenyl]ethyl]amino]carbonyl]-3-thiazolidinecarboxylic Acid 3-(Tricyclo[3.3.1.1^3,7]dec-1-yl)ester], the IC50 was no more than 250 nM in assay [1] and no more than 50 nM in assay [2].

As to `COC(=O)[C@H](Cc1ccc(NC(=O)c2c(Cl)cccc2Cl)cc1)NC(=O)[C@H]1CSCN1C(=O)OCCN1CCOCC1` (relative stereo) [Example 24, [S-(R*,R*)]-4-[[[1-[[4-[(2,6-Dichlorobenzoyl)amino]phenyl]methyl]-2-methoxy-2-oxoethyl]amino]carbonyl]-3-thiazolidinecarboxylic Acid 3-[2-(4-Morpholinyl)ethyl]ester], the values for the IC50 in assay [1] and in assay [2] were 250 to 1000 nM and 50 to 750 nM, respectively.

On to `O=C(Nc1ccc(C[C@H](NC(=O)[C@H]2CSCN2C(=O)OCCN2CCOCC2)C(=O)O)cc1)c1c(Cl)cccc1Cl` (relative stereo) [Example 25, [S-(R*,R*)]-4-[[[1-Carboxy-2-[-4-[(2,6-dichlorobenzoyl)amino]phenyl]ethyl]amino]carbonyl]-3-thiazolidinecarboxylic Acid 3-[2-(4-Morpholinyl)ethyl]ester], for which the IC50 in assay [1] was no more than 250 nM; in assay [2], no more than 50 nM.

On to `COC(=O)[C@H](Cc1ccc(NC(=O)c2c(Cl)cccc2Cl)cc1)NC(=O)[C@@H]1N(C(=O)OC(C)(C)C)CSC1(C)C` (relative stereo) [Example 28, [S-(R*,R*)]-4-[[[1-[[4-[(2,6-Dichlorobenzoyl)amino]phenyl]methyl]-2-methoxy-2-oxoethyl]amino]carbonyl]-5,5-dimethyl-3-thiazolidinecarboxylic Acid 3-(1,1-Dimethylethyl)ester], for which the figures for the IC50 in assay [1] and in assay [2] were no less than 1000 nM and no less than 750 nM, respectively.

With `CC(C)(C)OC(=O)N1CSC(C)(C)[C@@H]1C(=O)N[C@@H](Cc1ccc(NC(=O)c2c(Cl)cccc2Cl)cc1)C(=O)O` (relative stereo) [Example 29, [S-(R*,R*)]-4-[[[1-Carboxy-2-[4-[(2,6-dichlorobenzoyl)amino]phenyl]ethyl]amino]carbonyl]-5,5-dimethyl-3-thiazolidinecarboxylic Acid 3-(1,1-Dimethylethyl)ester], the IC50 in assay [1] was in the range of 250 to 1000 nM; in assay [2], 50 to 750 nM.

For the molecule `CCOC(=O)N1CSC(C)(C)[C@@H]1C(=O)N[C@@H](Cc1ccc(NC(=O)c2c(Cl)cccc2Cl)cc1)C(=O)OC` (relative stereo) [Example 30, [S-(R*,R*)]-4-[[[1-[[4-[(2,6-Dichlorobenzoyl)amino]phenyl]methyl]-2-methoxy-2-oxoethyl)amino]carbonyl]-5,5-dimethyl-3-thiazolidinecarboxylic Acid 3-Ethyl Ester], the IC50 in assay [1] was no less than 1000 nM; in assay [2] it was 50 to 750 nM.

Turning to `CCOC(=O)N1CSC(C)(C)[C@@H]1C(=O)N[C@@H](Cc1ccc(NC(=O)c2c(Cl)cccc2Cl)cc1)C(=O)O` (relative stereo) [Example 31, [S-(R*,R*)]-4-[[[1-Carboxy-2-[4-[(2,6-dichlorobenzoyl)amino]phenyl]ethyl]amino]carbonyl]-5,5-dimethyl-3-thiazolidinecarboxylic Acid 3-Ethyl Ester], the IC50 in assay [1] is no more than 250 nM; in assay [2], no more than 50 nM.

`COC(=O)[C@H](Cc1ccc(OCc2c(Cl)cccc2Cl)cc1)NC(=O)[C@H]1CSCN1C(=O)OC(C)(C)C` (relative stereo) [Example 32, [S-(R*,R*)]-4-[[[1-[4-[(2,6-Dichlorophenyl)methoxy]phenyl]methyl]-2-methoxy-2-oxoethyl]amino]carbonyl]-3-thiazolidinecarboxylic Acid 3-(1,1-Dimethylethyl)ester]: the IC50 in assay [1] was no less than 1000 nM; in assay [2], no less than 750 nM.

Consider `CC(C)(C)OC(=O)N1CSC[C@@H]1C(=O)N[C@@H](Cc1ccc(OCc2c(Cl)cccc2Cl)cc1)C(=O)O` (relative stereo) [Example 33, [S-(R*,R*)]-4-[[[1-Carboxy-2-[4-[(2,6-dichlorophenyl)methoxy]phenyl]ethyl]amino]carbonyl]-3-thiazolidinecarboxylic Acid 3-(1,1-Dimethylethyl)ester], for which the IC50 is no more than 250 nM in assay [1] and 50 to 750 nM in assay [2].

`CCOC(=O)N1CSC[C@@H]1C(=O)N[C@@H](Cc1ccc(OCc2c(Cl)cccc2Cl)cc1)C(=O)OC` (relative stereo) [Example 34, [S-(R*,R*)]-4-[[[1-[4-[(2,6-Dichlorophenyl)methoxy]phenylmethyl]-2-methoxy-2-oxoethyl]amino]carbonyl]-3-thiazolidinecarboxylic Acid 3-Ethyl Ester]: the values for the IC50 in assay [1] and in assay [2] were no less than 1000 nM and 50 to 750 nM, respectively.

Take `CCOC(=O)N1CSC[C@@H]1C(=O)N[C@@H](Cc1ccc(OCc2c(Cl)cccc2Cl)cc1)C(=O)O` (relative stereo) [Example 35, [S-(R*,R*)]-4-[[[1-Carboxy-2-[4-[(2,6-dichlorophenyl)methoxy]phenyl]ethyl]amino]carbonyl]-3-thiazolidinecarboxylic Acid 3-Ethyl Ester]: the IC50 was in the range of 250 to 1000 nM in assay [1] and 50 to 750 nM in assay [2].

With `O=C(O)[C@H](Cc1ccc(OCc2c(Cl)cccc2Cl)cc1)NC(=O)[C@H]1CSCN1C(=O)OCCN1CCOCC1` (relative stereo) [Example 37], the results for the IC50 in assay [1] and in assay [2] were no more than 250 nM and no more than 50 nM, respectively.

`CC(C)(C)OC(=O)N1CSC[C@H]1C(=O)N[C@@H](Cc1ccc(OCc2c(Cl)cccc2Cl)cc1)C(=O)O` (relative stereo) [Example 41, [R-(R*,S*)]-4-[[[1-Carboxy-2-[4-[(2,6-dichlorophenyl)methoxy]phenyl]ethyl]amino]carbonyl]-3-thiazolidinecarboxylic Acid 3-(1,1-Dimethylethyl)ester]: the values for the IC50 in assay [1] and in assay [2] were no less than 1000 nM and no less than 750 nM, respectively.

Source of the values: patent publication US6685617B1, “Inhibitors of α4β1 mediated cell adhesion” (Pharmacia & Upjohn Company, priority 1998, dated 2004).
